Test results published in patent US8192962B2, “Processes for detecting toxic substances” (Daikin Industries, Ltd., priority 2001, dated 2012).

System: Genes belonging to other category
Assay: DNA chip mRNA expression in yeast, genes belonging to other category (Table 9)
Assay type: cell-based, Saccharomyces cerevisiae S288C
Procedure, shortened: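 S. cerevisiae S288C grown at 25° C in YPD were exposed in log phase for two hours to one toxic chemical at a growth-inhibiting, non-lethal concentration; untreated cells served as control. Poly(A) mRNA was reverse-transcribed with Cy3/Cy5-dUTP and hybridized to a whole-genome yeast DNA chip at 65° C for over 12 hours; values are fluorescence ratios versus untreated.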

Compound: CCCCC[C@H](O)CC(=O)CCc1ccc(O)c(OC)c1 [(13), gingerol]
- The level of expressed mRNA in the presence of chemical substance/The level of expressed mRNA in the absence of chemical substance (yeast gene YAL007C): 2.0
- The level of expressed mRNA in the presence of chemical substance/The level of expressed mRNA in the absence of chemical substance (yeast gene YBL005W-A): 2.9
- The level of expressed mRNA in the presence of chemical substance/The level of expressed mRNA in the absence of chemical substance (yeast gene YBL041W): 2.6
- The level of expressed mRNA in the presence of chemical substance/The level of expressed mRNA in the absence of chemical substance (yeast gene YBL043W): 1.8
- The level of expressed mRNA in the presence of chemical substance/The level of expressed mRNA in the absence of chemical substance (yeast gene YBR109C): 2.0
- The level of expressed mRNA in the presence of chemical substance/The level of expressed mRNA in the absence of chemical substance (yeast gene YBR201W): 1.9
- The level of expressed mRNA in the presence of chemical substance/The level of expressed mRNA in the absence of chemical substance (yeast gene YCL020W): 3.0
- The level of expressed mRNA in the presence of chemical substance/The level of expressed mRNA in the absence of chemical substance (yeast gene YCL027W): 1.1
- The level of expressed mRNA in the presence of chemical substance/The level of expressed mRNA in the absence of chemical substance (yeast gene YCR004C): 1.3
- The level of expressed mRNA in the presence of chemical substance/The level of expressed mRNA in the absence of chemical substance (yeast gene YCR071C): 1.3
- The level of expressed mRNA in the presence of chemical substance/The level of expressed mRNA in the absence of chemical substance (yeast gene YCR088W): 1.9
- The level of expressed mRNA in the presence of chemical substance/The level of expressed mRNA in the absence of chemical substance (yeast gene YDL008W): 2.0
- The level of expressed mRNA in the presence of chemical substance/The level of expressed mRNA in the absence of chemical substance (yeast gene YDL097C): 4.0
- The level of expressed mRNA in the presence of chemical substance/The level of expressed mRNA in the absence of chemical substance (yeast gene YDL126C): 4.3
- The level of expressed mRNA in the presence of chemical substance/The level of expressed mRNA in the absence of chemical substance (yeast gene YDL212W): 0.5
- The level of expressed mRNA in the presence of chemical substance/The level of expressed mRNA in the absence of chemical substance (yeast gene YDL238C): 2.0
- The level of expressed mRNA in the presence of chemical substance/The level of expressed mRNA in the absence of chemical substance (yeast gene YDR055W): 3.1
- The level of expressed mRNA in the presence of chemical substance/The level of expressed mRNA in the absence of chemical substance (yeast gene YDR084C): 1.0
- The level of expressed mRNA in the presence of chemical substance/The level of expressed mRNA in the absence of chemical substance (yeast gene YDR085C): 1.1
- The level of expressed mRNA in the presence of chemical substance/The level of expressed mRNA in the absence of chemical substance (yeast gene YDR104C): 1.6
- The level of expressed mRNA in the presence of chemical substance/The level of expressed mRNA in the absence of chemical substance (yeast gene YDR115W): 1.1
- The level of expressed mRNA in the presence of chemical substance/The level of expressed mRNA in the absence of chemical substance (yeast gene YDR315C): 1.6
- The level of expressed mRNA in the presence of chemical substance/The level of expressed mRNA in the absence of chemical substance (yeast gene YDR358W): 3.2
- The level of expressed mRNA in the presence of chemical substance/The level of expressed mRNA in the absence of chemical substance (yeast gene YDR388W): 1.7
- The level of expressed mRNA in the presence of chemical substance/The level of expressed mRNA in the absence of chemical substance (yeast gene YDR481C): 1.5
- The level of expressed mRNA in the presence of chemical substance/The level of expressed mRNA in the absence of chemical substance (yeast gene YDR518W): 1.8
- The level of expressed mRNA in the presence of chemical substance/The level of expressed mRNA in the absence of chemical substance (yeast gene YEL042W): 0.4
- The level of expressed mRNA in the presence of chemical substance/The level of expressed mRNA in the absence of chemical substance (yeast gene YEL066W): 1.6
- The level of expressed mRNA in the presence of chemical substance/The level of expressed mRNA in the absence of chemical substance (yeast gene YER012W): 2.9
- The level of expressed mRNA in the presence of chemical substance/The level of expressed mRNA in the absence of chemical substance (yeast gene YER130C): 1.6
- The level of expressed mRNA in the presence of chemical substance/The level of expressed mRNA in the absence of chemical substance (yeast gene YER136W): 1.3
- The level of expressed mRNA in the presence of chemical substance/The level of expressed mRNA in the absence of chemical substance (yeast gene YFL022C): 0.6
- The level of expressed mRNA in the presence of chemical substance/The level of expressed mRNA in the absence of chemical substance (yeast gene YFL043C): 1.5
- The level of expressed mRNA in the presence of chemical substance/The level of expressed mRNA in the absence of chemical substance (yeast gene YGL158W): 1.0
- The level of expressed mRNA in the presence of chemical substance/The level of expressed mRNA in the absence of chemical substance (yeast gene YGL229C): 1.7
- The level of expressed mRNA in the presence of chemical substance/The level of expressed mRNA in the absence of chemical substance (yeast gene YGR136W): 1.7
- The level of expressed mRNA in the presence of chemical substance/The level of expressed mRNA in the absence of chemical substance (yeast gene YGR189C): 1.2
- The level of expressed mRNA in the presence of chemical substance/The level of expressed mRNA in the absence of chemical substance (yeast gene YGR257C): 2.0
- The level of expressed mRNA in the presence of chemical substance/The level of expressed mRNA in the absence of chemical substance (yeast gene YHR004C): 1.1
- The level of expressed mRNA in the presence of chemical substance/The level of expressed mRNA in the absence of chemical substance (yeast gene YHR071W): 2.3
- The level of expressed mRNA in the presence of chemical substance/The level of expressed mRNA in the absence of chemical substance (yeast gene YHR142W): 1.2
- The level of expressed mRNA in the presence of chemical substance/The level of expressed mRNA in the absence of chemical substance (yeast gene YIL123W): 0.4
- The level of expressed mRNA in the presence of chemical substance/The level of expressed mRNA in the absence of chemical substance (yeast gene YJL073W): 1.6
- The level of expressed mRNA in the presence of chemical substance/The level of expressed mRNA in the absence of chemical substance (yeast gene YJL089W): 1.8
- The level of expressed mRNA in the presence of chemical substance/The level of expressed mRNA in the absence of chemical substance (yeast gene YJR099W): 1.5
- The level of expressed mRNA in the presence of chemical substance/The level of expressed mRNA in the absence of chemical substance (yeast gene YJR122W): 1.3
- The level of expressed mRNA in the presence of chemical substance/The level of expressed mRNA in the absence of chemical substance (yeast gene YJR125C): 1.5
- The level of expressed mRNA in the presence of chemical substance/The level of expressed mRNA in the absence of chemical substance (yeast gene YKL008C): 1.7
- The level of expressed mRNA in the presence of chemical substance/The level of expressed mRNA in the absence of chemical substance (yeast gene YKL013C): 1.3
- The level of expressed mRNA in the presence of chemical substance/The level of expressed mRNA in the absence of chemical substance (yeast gene YKL039W): 1.9
